Results from paper PMC8301156, “Phenolic Extracts from Extra Virgin Olive Oils Inhibit Dipeptidyl Peptidase IV Activity: In Vitro, Cellular, and In Silico Molecular Modeling Investigations” (Antioxidants, 2021).

Assays:
DPP-IV = conditions: cited from earlier work; for IC50: read-out: IC50, in vitro DPP-IV activity
[1] = target: T1, purified human recombinant DPP-IV enzyme (Homo sapiens, UniProt P27487); experiment: In vitro DPP-IV activity assay (Gly-Pro-AMC fluorescence); format: biochemical; conditions: tested 1–1000 µM
T1 construct: purchased Cayman Chemicals
T1 sequence (P27487 whole entry): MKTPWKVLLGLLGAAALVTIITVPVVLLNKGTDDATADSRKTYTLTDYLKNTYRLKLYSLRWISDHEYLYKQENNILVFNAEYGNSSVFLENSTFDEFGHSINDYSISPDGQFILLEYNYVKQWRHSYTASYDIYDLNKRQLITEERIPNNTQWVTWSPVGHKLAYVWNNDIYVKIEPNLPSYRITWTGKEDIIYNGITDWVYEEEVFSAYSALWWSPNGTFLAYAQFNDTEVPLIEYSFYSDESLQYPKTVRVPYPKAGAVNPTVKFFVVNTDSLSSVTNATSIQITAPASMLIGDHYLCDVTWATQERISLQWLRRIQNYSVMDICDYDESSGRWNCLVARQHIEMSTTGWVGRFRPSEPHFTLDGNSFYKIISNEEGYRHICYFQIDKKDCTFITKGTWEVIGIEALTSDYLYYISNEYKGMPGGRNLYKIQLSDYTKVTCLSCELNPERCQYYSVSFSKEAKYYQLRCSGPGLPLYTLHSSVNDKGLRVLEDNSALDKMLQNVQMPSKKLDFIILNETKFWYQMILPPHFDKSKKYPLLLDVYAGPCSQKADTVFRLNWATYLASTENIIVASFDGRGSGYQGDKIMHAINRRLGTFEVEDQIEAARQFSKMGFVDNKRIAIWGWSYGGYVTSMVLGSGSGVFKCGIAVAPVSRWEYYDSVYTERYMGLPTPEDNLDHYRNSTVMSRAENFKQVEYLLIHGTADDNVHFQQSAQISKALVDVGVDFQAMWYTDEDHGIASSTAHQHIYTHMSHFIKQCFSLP
Experimental: The DPP-IV enzyme was provided by Cayman Chemicals (Ann Arbor, MI, USA), while the DPP-IV substrate (Gly-Pro-amido-4-methylcoumarin hydrobromide (Gly-Pro-AMC)) was from AnaSpec Inc. (Freemont, CA, USA). The experiments were carried out in triplicate in a half-volume 96-well solid plate (white) following conditions previously optimized. More details are available in the Supplementary Material.
To evaluate the DPP-IV inhibitory activity of both BUO and OMN, in vitro experiments were performed by using the purified human recombinant DPP-IV enzyme and H-Gly-Pro-AMC as a substrate. The reaction was monitored by measuring the fluorescence signals at 465 nm after excitation at 350 nm, deriving from the release of a free AMC group after the cleavage of H-Gly-Pro-AMC catalyzed by DPP-IV. […]
Tris-HCl, ethylendiaminetetraacetic acid (EDTA) and NaCl were from Sigma-Aldrich (St. Louis, MO, USA) The DPP-IV assay kit was from (Cayman Chemicals (Michigan, USA), while Gly- Pro-amido-4-methylcoumarin hydrobromide (Gly- Pro-AMC) was from AnaSpec (Freemont, CA, USA). […]
MA, USA). Tyrosol (≥98%), hydroxytyrosol (≥98%), and oleocanthal (≥95%) were from Merck Life Science S.r.l. (Milano, Italy); oleuropein (≥98%) was from Extrasynthese (Genay, France), whereas oleacin was from Phytolab
(Vestenbergsgreuth, Germany).
2.3. In Vitro DPP-IV Activity Assay
The DPP-IV enzyme was provided by Cayman Chemicals (Michigan, USA), while the DPP-IV substrate (H-Gly-Pro-AMC) was from AnaSpec Inc.
(Freemont, CA, USA). The experiments were carried out in triplicate in a half volume 96-well solid plate (white). […]
Subsequently, the samples were mixed and 50 μL of each reaction was transferred in each plate well. […] Fluorescence signals deriving from the release of free AMC were measured using a Synergy H1 fluorescence plate reader from BioTek (excitation/emission wavelength

Compound	activity against DPP-IV (in words) (DPP-IV)	further results
O=c1cc(-c2ccc(O)cc2)oc2cc(O)cc(O)c12 [apigenin]	–	mode of DPP-IV inhibition (DPP-IV): noncompetitive
O.Oc1cc(O)c2c(c1)O[C@H](c1ccc(O)c(O)c1)[C@@H](O)C2 [catechin]	totally inactive	–
O=C(/C=C/c1ccc(O)c(O)c1)O[C@@H]1C[C@](O)(C(=O)O)C[C@@H](O)[C@H]1O [chlorogenic acid]	totally inactive	–
COc1cc(/C=C/C(=O)CC(=O)/C=C/c2ccc(O)c(OC)c2)ccc1O [curcumin]	more active than resveratrol	mode of DPP-IV inhibition (DPP-IV): competitive
Oc1cc(O)c2c(c1)O[C@H](c1ccc(O)c(O)c1)[C@H](O)C2 [epicatechin]	totally inactive	–
C[C@@H]1O[C@@H](OC[C@H]2O[C@@H](Oc3cc(O)c4c(c3)O[C@H](c3ccc(O)c(O)c3)CC4=O)[C@H](O)[C@@H](O)[C@@H]2O)[C@H](O)[C@H](O)[C@H]1O [eriocitrin]	–	IC50 (DPP-IV): 10.36 ± 0.09 µM
O=c1c(-c2ccc(O)cc2)coc2cc(O[C@@H]3O[C@H](CO)[C@@H](O)[C@H](O)[C@H]3O)cc(O)c12 [genistin]	totally inactive	–
COc1ccc([C@@H]2CC(=O)c3c(O)cc(O[C@@H]4O[C@H](CO[C@@H]5O[C@@H](C)[C@H](O)[C@@H](O)[C@H]5O)[C@@H](O)[C@H](O)[C@H]4O)cc3O2)cc1O [hesperidin]	totally inactive	–
OCCc1ccc(O)c(O)c1 [hydroxytyrosol]	–	IC50 [1]: 742 ± 35.7 µM
CC1(C)O[C@H]2CC(=O)OC[C@]23[C@H]2CC[C@@]4(C)[C@H](c5ccoc5)OC(=O)[C@H]5O[C@]54[C@]2(C)C(=O)C[C@@H]13 [limonin]	totally inactive	–
O=c1cc(-c2ccc(O)c(O)c2)oc2cc(O)cc(O)c12 [luteolin]	–	mode of DPP-IV inhibition (DPP-IV): noncompetitive
C[C@@H]1O[C@@H](O[C@H]2[C@H](Oc3cc(O)c4c(c3)O[C@H](c3ccc(O)cc3)CC4=O)O[C@H](CO)[C@@H](O)[C@@H]2O)[C@H](O)[C@H](O)[C@H]1O [naringin]	totally inactive	–
C[C@@H]1O[C@@H](OC[C@H]2O[C@@H](Oc3cc(O)c4c(c3)O[C@H](c3ccc(O)cc3)CC4=O)[C@H](O)[C@@H](O)[C@@H]2O)[C@H](O)[C@H](O)[C@H]1O [narirutin]	totally inactive	–
COc1ccc([C@@H]2CC(=O)c3c(O)cc(O[C@@H]4O[C@H](CO)[C@@H](O)[C@H](O)[C@H]4O[C@@H]4O[C@@H](C)[C@H](O)[C@@H](O)[C@H]4O)cc3O2)cc1O [neohesperidin]	totally inactive	–
C/C=C1/[C@H](O[C@@H]2O[C@H](CO)[C@@H](O)[C@H](O)[C@H]2O)OC=C(C(=O)OC)[C@H]1CC(=O)OCCc1ccc(O)c(O)c1 [oleuropein]	–	IC50 [1]: 472 ± 21.7 µM
O=C(O)c1ccc(O)c(O)c1 [protocatechuic acid]	totally inactive	–
Oc1ccc(/C=C/c2cc(O)cc(O)c2)cc1 [resveratrol]	–	mode of DPP-IV inhibition (DPP-IV): competitive; IC50 (DPP-IV): 0.0006 ± 0.0004 µM
C[C@@H]1O[C@@H](OC[C@H]2O[C@@H](Oc3c(-c4ccc(O)c(O)c4)oc4cc(O)cc(O)c4c3=O)[C@H](O)[C@@H](O)[C@@H]2O)[C@H](O)[C@H](O)[C@H]1O [rutin]	totally inactive	–
OCCc1ccc(O)cc1 [tyrosol]	–	IC50 [1]: 1110 ± 55.6 µM
